Results from PubChem BioAssay (NCI).
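How tested: cells in 96-well plates exposed to compound for 48 hours at five concentrations. TGI: concentration producing complete growth inhibition.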

Key:
Assay in all cases: inhibition of tumour cell growth, NCI panel, 48 h
786-0 renal = tested on: 786-0 renal
A498 renal = tested on: A498 renal
A549 NSCLC = tested on: A549 NSCLC
ACHN renal = tested on: ACHN renal
BT-549 breast = tested on: BT-549 breast
CAKI-1 renal = tested on: CAKI-1 renal
CCRF-CEM leukemia = tested on: CCRF-CEM leukemia
COLO 205 colon = tested on: COLO 205 colon
DU-145 prostate = tested on: DU-145 prostate
EKVX NSCLC = tested on: EKVX NSCLC
HCC-2998 colon = tested on: HCC-2998 colon
HCT-116 colon = tested on: HCT-116 colon
HCT-15 colon = tested on: HCT-15 colon
HL-60(TB) leukemia = tested on: HL-60(TB) leukemia
HOP-62 NSCLC = tested on: HOP-62 NSCLC
HOP-92 NSCLC = tested on: HOP-92 NSCLC
HT29 colon = tested on: HT29 colon
IGROV1 ovarian = tested on: IGROV1 ovarian
K-562 leukemia = tested on: K-562 leukemia
KM12 colon = tested on: KM12 colon
LOX IMVI melanoma = tested on: LOX IMVI melanoma
M14 melanoma = tested on: M14 melanoma
MALME-3M melanoma = tested on: MALME-3M melanoma
MCF7 breast = tested on: MCF7 breast
MDA-MB-231 breast = tested on: MDA-MB-231 breast
MDA-MB-435 = tested on: MDA-MB-435
MDA-N = tested on: MDA-N
MOLT-4 leukemia = tested on: MOLT-4 leukemia
NCI-H226 lung = tested on: NCI-H226 lung
NCI-H23 lung = tested on: NCI-H23 lung
NCI-H460 lung = tested on: NCI-H460 lung
NCI-H522 lung = tested on: NCI-H522 lung
NCI/ADR-RES ovarian = tested on: NCI/ADR-RES ovarian
OVCAR-3 ovarian = tested on: OVCAR-3 ovarian
OVCAR-4 ovarian = tested on: OVCAR-4 ovarian
OVCAR-5 ovarian = tested on: OVCAR-5 ovarian
OVCAR-8 ovarian = tested on: OVCAR-8 ovarian
PC-3 prostate = tested on: PC-3 prostate
RXF 393 renal = tested on: RXF 393 renal
SF-268 CNS = tested on: SF-268 CNS
SF-295 CNS = tested on: SF-295 CNS
SF-539 CNS = tested on: SF-539 CNS
SK-MEL-2 melanoma = tested on: SK-MEL-2 melanoma
SK-MEL-28 melanoma = tested on: SK-MEL-28 melanoma
SK-MEL-5 melanoma = tested on: SK-MEL-5 melanoma
SK-OV-3 ovarian = tested on: SK-OV-3 ovarian
SN12C renal = tested on: SN12C renal
SNB-19 CNS = tested on: SNB-19 CNS
SNB-75 CNS = tested on: SNB-75 CNS
SW-620 colon = tested on: SW-620 colon
TK-10 renal = tested on: TK-10 renal
U251 CNS = tested on: U251 CNS
UACC-257 melanoma = tested on: UACC-257 melanoma
UO-31 renal = tested on: UO-31 renal
RPMI-8226 leukemia = tested on: RPMI-8226 leukemia
SR leukemia = tested on: SR leukemia
UACC-62 melanoma = tested on: UACC-62 melanoma

In the case of `COC(=O)C1=CC2C(=O)c3ccccc3C1(c1ccccc1)N2C1CCCCC1` (centres undefined), the TGI (786-0 renal) is reported as > 100 µM, the TGI (A498 renal) is reported as > 100 µM and the TGI (A549 NSCLC) is reported as > 100 µM. The TGI (ACHN renal) was > 100 µM, the TGI (BT-549 breast) was 79.7 µM and the TGI (CAKI-1 renal) was 46.1 µM. The TGI (CCRF-CEM leukemia) was > 100 µM, the TGI (COLO 205 colon) was 26.2 µM and the TGI (DU-145 prostate) was > 100 µM. For the same compound, the TGI (EKVX NSCLC) was > 100 µM, the TGI (HCC-2998 colon) was 30.1 µM and the TGI (HCT-116 colon) was > 100 µM. The TGI (HCT-15 colon) was > 100 µM, the TGI (HL-60(TB) leukemia) was > 100 µM and the TGI (HOP-62 NSCLC) was 36.8 µM. The TGI (HOP-92 NSCLC) was > 100 µM, the TGI (HT29 colon) was > 100 µM and the TGI (IGROV1 ovarian) was > 100 µM. For the same compound, the TGI (K-562 leukemia) was > 100 µM, the TGI (KM12 colon) was 32.1 µM and the TGI (LOX IMVI melanoma) was 52.3 µM. The TGI (M14 melanoma) was > 100 µM, the TGI (MALME-3M melanoma) was 73.1 µM and the TGI (MCF7 breast) was 36.8 µM. For the same compound, the TGI (MDA-MB-231 breast) was 42.8 µM, the TGI (MDA-MB-435) was 43.4 µM and the TGI (MDA-N) was > 100 µM. For the same compound, the TGI (MOLT-4 leukemia) was > 100 µM, the TGI (NCI-H226 lung) was 84.1 µM and the TGI (NCI-H23 lung) was > 100 µM. The TGI (NCI-H460 lung) was 40.6 µM, the TGI (NCI-H522 lung) was 82.3 µM and the TGI (NCI/ADR-RES ovarian) was > 100 µM. The TGI (OVCAR-3 ovarian) was 95 µM, the TGI (OVCAR-4 ovarian) was 91.6 µM and the TGI (OVCAR-5 ovarian) was > 100 µM. For the same compound, the TGI (OVCAR-8 ovarian) was > 100 µM, the TGI (PC-3 prostate) was > 100 µM and the TGI (RXF 393 renal) was 24.6 µM. The TGI (SF-268 CNS) was > 100 µM, the TGI (SF-295 CNS) was 55.3 µM and the TGI (SF-539 CNS) was 41.5 µM. For the same compound, the TGI (SK-MEL-2 melanoma) was 29.1 µM, the TGI (SK-MEL-28 melanoma) was 41.4 µM and the TGI (SK-MEL-5 melanoma) was 22 µM. For the same compound, the TGI (SK-OV-3 ovarian) was > 100 µM, the TGI (SN12C renal) was > 100 µM and the TGI (SNB-19 CNS) was > 100 µM. The TGI (SNB-75 CNS) was > 100 µM, the TGI (SW-620 colon) was > 100 µM and the TGI (TK-10 renal) was > 100 µM. The TGI (U251 CNS) was 43.7 µM, the TGI (UACC-257 melanoma) was 39 µM and the TGI (UO-31 renal) was > 100 µM.

In the case of `CCOC(=O)/C(C#N)=C/Nc1c(C)n(C)n(-c2ccccc2)c1=O`, the TGI (786-0 renal) is reported as > 100 µM, the TGI (A498 renal) is reported as > 100 µM and the TGI (A549 NSCLC) is reported as > 100 µM. For the same compound, the TGI (ACHN renal) was > 100 µM, the TGI (BT-549 breast) was > 100 µM and the TGI (CAKI-1 renal) was > 100 µM. For the same compound, the TGI (CCRF-CEM leukemia) was > 100 µM, the TGI (COLO 205 colon) was > 100 µM and the TGI (DU-145 prostate) was > 100 µM. For the same compound, the TGI (EKVX NSCLC) was > 100 µM, the TGI (HCC-2998 colon) was > 100 µM and the TGI (HCT-116 colon) was > 100 µM. For the same compound, the TGI (HCT-15 colon) was > 100 µM, the TGI (HL-60(TB) leukemia) was > 100 µM and the TGI (HOP-92 NSCLC) was > 100 µM. The TGI (IGROV1 ovarian) was > 100 µM, the TGI (K-562 leukemia) was > 100 µM and the TGI (KM12 colon) was > 100 µM. The TGI (LOX IMVI melanoma) was > 100 µM, the TGI (M14 melanoma) was > 100 µM and the TGI (MALME-3M melanoma) was > 100 µM. The TGI (MCF7 breast) was > 100 µM, the TGI (MDA-MB-231 breast) was > 100 µM and the TGI (MDA-MB-435) was > 100 µM. For the same compound, the TGI (MDA-N) was > 100 µM, the TGI (MOLT-4 leukemia) was > 100 µM and the TGI (NCI-H226 lung) was > 100 µM. For the same compound, the TGI (NCI-H23 lung) was > 100 µM, the TGI (NCI-H522 lung) was > 100 µM and the TGI (NCI/ADR-RES ovarian) was > 100 µM. The TGI (OVCAR-3 ovarian) was > 100 µM, the TGI (OVCAR-4 ovarian) was > 100 µM and the TGI (OVCAR-5 ovarian) was > 100 µM. The TGI (OVCAR-8 ovarian) was > 100 µM, the TGI (PC-3 prostate) was > 100 µM and the TGI (RPMI-8226 leukemia) was > 100 µM. For the same compound, the TGI (RXF 393 renal) was > 100 µM, the TGI (SF-295 CNS) was > 100 µM and the TGI (SF-539 CNS) was > 100 µM. The TGI (SK-MEL-2 melanoma) was > 100 µM, the TGI (SK-MEL-5 melanoma) was > 100 µM and the TGI (SK-OV-3 ovarian) was > 100 µM. For the same compound, the TGI (SN12C renal) was > 100 µM, the TGI (SR leukemia) was > 100 µM and the TGI (SW-620 colon) was > 100 µM. The TGI (TK-10 renal) was > 100 µM, the TGI (U251 CNS) was > 100 µM and the TGI (UACC-257 melanoma) was > 100 µM. The TGI (UACC-62 melanoma) was > 100 µM and the TGI (UO-31 renal) was > 100 µM.
